{"source": "patent US20230085307A1", "about": "“PYRIDAZINONE COMPOUND AND HERBICIDE” (NISSAN CHEMICAL CORPORATION, priority 2019, published 2023)", "key": {"barnyard grass [1]": {"test_system": "barnyard grass", "experiment": "Test Example 4: herbicidal effect by soil treatment (Table 19, symbol H)", "format": "in vivo, barnyard grass (Echinochloa crus-galli)", "details": "amount of applied herbicide 221 g/ha", "summary_of_the_method": "(§1)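 In this soil treatment, the formulated compound reached the seeds only through the soil: seeds were buried about 1.5 cm deep in sterilized diluvial soil, then the diluted emulsion was sprayed over the surface. After three weeks at 25° C. to 30° C. in a greenhouse, effects were graded on criteria from an earlier test.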"}, "velvetleaf [2]": {"test_system": "velvetleaf", "experiment": "Test Example 5: herbicidal effect by foliage application, plastic box (Table 20, symbol M)", "format": "in vivo, velvetleaf (Abutilon theophrasti)", "details": "foliage application, 221 g/ha, evaluated three weeks after application", "summary_of_the_method": "(§2)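 Plants were sown into sterilized diluvial soil under about 1.5 cm cover and kept in a greenhouse at 25° C. to 30° C. Fourteen days on, foliage received an even spray of the diluted emulsion. Herbicidal or crop effect was judged three weeks afterwards.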"}, "redroot pigweed [3]": {"test_system": "redroot pigweed", "experiment": "Test Example 5: herbicidal effect by foliage application, plastic box (Table 20, symbol N)", "format": "in vivo, redroot pigweed (Amaranthus retroflexus)", "details": "foliage application, 221 g/ha, evaluated three weeks after application", "summary_of_the_method": "as §2"}, "southern crabgrass [4]": {"test_system": "southern crabgrass", "experiment": "Test Example 4: herbicidal effect by soil treatment (Table 19, symbol F)", "format": "in vivo, southern crabgrass (Digitaria ciliaris)", "details": "amount of applied herbicide 221 g/ha", "summary_of_the_method": "as §1"}, "persian speedwell [5]": {"test_system": "persian speedwell", "experiment": "Test Example 4: herbicidal effect by soil treatment (Table 19, symbol R)", "format": "in vivo, Persian speedwell (Veronica persica)", "details": "amount of applied herbicide 221 g/ha", "summary_of_the_method": "as §1"}, "green foxtail [6]": {"test_system": "green foxtail", "experiment": "Test Example 4: herbicidal effect by soil treatment (Table 19, symbol G)", "format": "in vivo, green foxtail (Setaria viridis)", "details": "amount of applied herbicide 221 g/ha", "summary_of_the_method": "as §1"}, "rice flat sedge": {"test_system": "rice flat sedge", "experiment": "Test Example 3: herbicidal effect by foliage application, Wagner pot (Table 18, symbol E)", "format": "in vivo, rice flat sedge (Cyperus iria)", "details": "amount of applied herbicide 221 g/ha", "summary_of_the_method": "(§3)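 Plants were sown in alluvial soil held under 0.1–0.5 cm standing water and grown 14 days in a greenhouse at 25–30 °C. An emulsifiable formulation, water-diluted to the set dose, was then sprayed onto the foliage, and effects were scored three weeks later using previously defined criteria.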"}, "southern crabgrass [7]": {"test_system": "southern crabgrass", "experiment": "Test Example 5: herbicidal effect by foliage application, plastic box (Table 20, symbol F)", "format": "in vivo, southern crabgrass (Digitaria ciliaris)", "details": "foliage application, 221 g/ha, evaluated three weeks after application", "summary_of_the_method": "as §2"}, "windgrass [8]": {"test_system": "windgrass", "experiment": "Test Example 5: herbicidal effect by foliage application, plastic box (Table 20, symbol L)", "format": "in vivo, windgrass (Apera spica-venti)", "details": "foliage application, 221 g/ha, evaluated three weeks after application", "summary_of_the_method": "as §2"}, "velvetleaf [9]": {"test_system": "velvetleaf", "experiment": "Test Example 4: herbicidal effect by soil treatment (Table 19, symbol M)", "format": "in vivo, velvetleaf (Abutilon theophrasti)", "details": "amount of applied herbicide 221 g/ha", "summary_of_the_method": "as §1"}, "chickweed [10]": {"test_system": "chickweed", "experiment": "Test Example 4: herbicidal effect by soil treatment (Table 19, symbol P)", "format": "in vivo, common chickweed (Stellaria media)", "details": "amount of applied herbicide 221 g/ha", "summary_of_the_method": "as §1"}, "Italian ryegrass [11]": {"test_system": "Italian ryegrass", "experiment": "Test Example 5: herbicidal effect by foliage application, plastic box (Table 20, symbol K)", "format": "in vivo, Italian ryegrass (Lolium multiflorum)", "details": "foliage application, 221 g/ha, evaluated three weeks after application", "summary_of_the_method": "as §2"}, "Italian ryegrass [12]": {"test_system": "Italian ryegrass", "experiment": "Test Example 4: herbicidal effect by soil treatment (Table 19, symbol K)", "format": "in vivo, Italian ryegrass (Lolium multiflorum)", "details": "amount of applied herbicide 221 g/ha", "summary_of_the_method": "as §1"}, "barnyard grass [13]": {"test_system": "barnyard grass", "experiment": "Test Example 3: herbicidal effect by foliage application, Wagner pot (Table 18, symbol H)", "format": "in vivo, barnyard grass (Echinochloa crus-galli)", "details": "amount of applied herbicide 221 g/ha", "summary_of_the_method": "as §3"}, "barnyard grass [14]": {"test_system": "barnyard grass", "experiment": "Test Example 5: herbicidal effect by foliage application, plastic box (Table 20, symbol H)", "format": "in vivo, barnyard grass (Echinochloa crus-galli)", "details": "foliage application, 221 g/ha, evaluated three weeks after application", "summary_of_the_method": "as §2"}, "persian speedwell [15]": {"test_system": "persian speedwell", "experiment": "Test Example 5: herbicidal effect by foliage application, plastic box (Table 20, symbol R)", "format": "in vivo, Persian speedwell (Veronica persica)", "details": "foliage application, 221 g/ha, evaluated three weeks after application", "summary_of_the_method": "as §2"}, "windgrass [16]": {"test_system": "windgrass", "experiment": "Test Example 4: herbicidal effect by soil treatment (Table 19, symbol L)", "format": "in vivo, windgrass (Apera spica-venti)", "details": "amount of applied herbicide 221 g/ha", "summary_of_the_method": "as §1"}, "lambsquarters [17]": {"test_system": "lambsquarters", "experiment": "Test Example 5: herbicidal effect by foliage application, plastic box (Table 20, symbol O)", "format": "in vivo, lambsquarters (Chenopodium album)", "details": "foliage application, 221 g/ha, evaluated three weeks after application", "summary_of_the_method": "as §2"}, "wild oat [18]": {"test_system": "wild oat", "experiment": "Test Example 4: herbicidal effect by soil treatment (Table 19, symbol I)", "format": "in vivo, wild oat (Avena fatua)", "details": "amount of applied herbicide 221 g/ha", "summary_of_the_method": "as §1"}, "blackgrass [19]": {"test_system": "blackgrass", "experiment": "Test Example 4: herbicidal effect by soil treatment (Table 19, symbol J)", "format": "in vivo, blackgrass (Alopecurus myosuroides)", "details": "amount of applied herbicide 221 g/ha", "summary_of_the_method": "as §1"}, "Chinese sprangletop": {"test_system": "Chinese sprangletop", "experiment": "Test Example 3: herbicidal effect by foliage application, Wagner pot (Table 18, symbol D)", "format": "in vivo, chinese sprangletop (Leptochloa chinensis)", "details": "amount of applied herbicide 221 g/ha", "summary_of_the_method": "as §3"}, "chickweed [20]": {"test_system": "chickweed", "experiment": "Test Example 5: herbicidal effect by foliage application, plastic box (Table 20, symbol P)", "format": "in vivo, common chickweed (Stellaria media)", "details": "foliage application, 221 g/ha, evaluated three weeks after application", "summary_of_the_method": "as §2"}, "lambsquarters [21]": {"test_system": "lambsquarters", "experiment": "Test Example 4: herbicidal effect by soil treatment (Table 19, symbol O)", "format": "in vivo, lambsquarters (Chenopodium album)", "details": "amount of applied herbicide 221 g/ha", "summary_of_the_method": "as §1"}, "redroot pigweed [22]": {"test_system": "redroot pigweed", "experiment": "Test Example 4: herbicidal effect by soil treatment (Table 19, symbol N)", "format": "in vivo, redroot pigweed (Amaranthus retroflexus)", "details": "amount of applied herbicide 221 g/ha", "summary_of_the_method": "as §1"}, "green foxtail [23]": {"test_system": "green foxtail", "experiment": "Test Example 5: herbicidal effect by foliage application, plastic box (Table 20, symbol G)", "format": "in vivo, green foxtail (Setaria viridis)", "details": "foliage application, 221 g/ha, evaluated three weeks after application", "summary_of_the_method": "as §2"}, "blackgrass [24]": {"test_system": "blackgrass", "experiment": "Test Example 5: herbicidal effect by foliage application, plastic box (Table 20, symbol J)", "format": "in vivo, blackgrass (Alopecurus myosuroides)", "details": "foliage application, 221 g/ha, evaluated three weeks after application", "summary_of_the_method": "as §2"}, "wild oat [25]": {"test_system": "wild oat", "experiment": "Test Example 5: herbicidal effect by foliage application, plastic box (Table 20, symbol I)", "format": "in vivo, wild oat (Avena fatua)", "details": "foliage application, 221 g/ha, evaluated three weeks after application", "summary_of_the_method": "as §2"}}}
{"molecule": "Cc1ccc2sc(-c3ccc(C#N)cc3)c(-c3c(O)c(C)nn(C)c3=O)c2c1", "note": "[2-146]", "values": [{"measurement": "H: barnyard grass, herbicidal effect rating", "setting": "barnyard grass [1]", "value": "0 (Herbicidal rate of 5% or less (almost no effect))"}, {"measurement": "herbicidal effect on M: velvetleaf (criteria 0-5)", "setting": "velvetleaf [2]", "value": "2 (Herbicidal rate of 20% or more and less than 40%)"}, {"measurement": "herbicidal effect on N: redroot pigweed (criteria 0-5)", "setting": "redroot pigweed [3]", "value": "5 (Herbicidal rate of 90% or more (almost completely withered))"}, {"measurement": "F: southern crabgrass, herbicidal effect rating", "setting": "southern crabgrass [4]", "value": "0 (Herbicidal rate of 5% or less (almost no effect))"}, {"measurement": "R: persian speedwell, herbicidal effect rating", "setting": "persian speedwell [5]", "value": "5 (Herbicidal rate of 90% or more (almost completely withered))"}, {"measurement": "G: green foxtail, herbicidal effect rating", "setting": "green foxtail [6]", "value": "0 (Herbicidal rate of 5% or less (almost no effect))"}, {"measurement": "herbicidal effect on E: rice flat sedge", "setting": "rice flat sedge", "value": "3 (Herbicidal rate of 40% or more and less than 70%)"}, {"measurement": "herbicidal effect on F: southern crabgrass (criteria 0-5)", "setting": "southern crabgrass [7]", "value": "0 (Herbicidal rate of 5% or less (almost no effect))"}, {"measurement": "herbicidal effect on L: windgrass (criteria 0-5)", "setting": "windgrass [8]", "value": "0 (Herbicidal rate of 5% or less (almost no effect))"}, {"measurement": "M: velvetleaf, herbicidal effect rating", "setting": "velvetleaf [9]", "value": "0 (Herbicidal rate of 5% or less (almost no effect))"}, {"measurement": "P: chickweed, herbicidal effect rating", "setting": "chickweed [10]", "value": "5 (Herbicidal rate of 90% or more (almost completely withered))"}, {"measurement": "herbicidal effect on K: Italian ryegrass (criteria 0-5)", "setting": "Italian ryegrass [11]", "value": "4 (Herbicidal rate of 70% or more and less than 90%)"}, {"measurement": "K: Italian ryegrass, herbicidal effect rating", "setting": "Italian ryegrass [12]", "value": "0 (Herbicidal rate of 5% or less (almost no effect))"}, {"measurement": "herbicidal effect on H: barnyard grass", "setting": "barnyard grass [13]", "value": "4 (Herbicidal rate of 70% or more and less than 90%)"}, {"measurement": "herbicidal effect on H: barnyard grass (criteria 0-5)", "setting": "barnyard grass [14]", "value": "4 (Herbicidal rate of 70% or more and less than 90%)"}, {"measurement": "herbicidal effect on R: persian speedwell (criteria 0-5)", "setting": "persian speedwell [15]", "value": "5 (Herbicidal rate of 90% or more (almost completely withered))"}, {"measurement": "L: windgrass, herbicidal effect rating", "setting": "windgrass [16]", "value": "0 (Herbicidal rate of 5% or less (almost no effect))"}, {"measurement": "herbicidal effect on O: lambsquarters (criteria 0-5)", "setting": "lambsquarters [17]", "value": "3 (Herbicidal rate of 40% or more and less than 70%)"}, {"measurement": "I: wild oat, herbicidal effect rating", "setting": "wild oat [18]", "value": "0 (Herbicidal rate of 5% or less (almost no effect))"}, {"measurement": "J: blackgrass, herbicidal effect rating", "setting": "blackgrass [19]", "value": "0 (Herbicidal rate of 5% or less (almost no effect))"}, {"measurement": "herbicidal effect on D: Chinese sprangletop", "setting": "Chinese sprangletop", "value": "0 (Herbicidal rate of 5% or less (almost no effect))"}, {"measurement": "herbicidal effect on P: chickweed (criteria 0-5)", "setting": "chickweed [20]", "value": "5 (Herbicidal rate of 90% or more (almost completely withered))"}, {"measurement": "O: lambsquarters, herbicidal effect rating", "setting": "lambsquarters [21]", "value": "0 (Herbicidal rate of 5% or less (almost no effect))"}, {"measurement": "N: redroot pigweed, herbicidal effect rating", "setting": "redroot pigweed [22]", "value": "4 (Herbicidal rate of 70% or more and less than 90%)"}, {"measurement": "herbicidal effect on G: green foxtail (criteria 0-5)", "setting": "green foxtail [23]", "value": "4 (Herbicidal rate of 70% or more and less than 90%)"}, {"measurement": "herbicidal effect on J: blackgrass (criteria 0-5)", "setting": "blackgrass [24]", "value": "3 (Herbicidal rate of 40% or more and less than 70%)"}, {"measurement": "herbicidal effect on I: wild oat (criteria 0-5)", "setting": "wild oat [25]", "value": "3 (Herbicidal rate of 40% or more and less than 70%)"}]}
